In US12187684B2, “Benzimidazole derivatives as modulators of retinoid-related orphan receptor gamma (RORγ) and pharmaceutical use thereof” (Jiangsu Hengrui Medicine Co., Ltd., priority 2018, dated 2025):

What was measured:
RORγ LBD-GST tagged = molecular target: T1, RORγ LBD-GST tagged (Homo sapiens, UniProt P51449); assay: LanthaScreen TR-FRET RORγ coactivator assay; type: biochemical; conditions: Fluorescein-D22 coactivator peptide, 1 hour room temperature
T1 construct: RORγ LBD-GST tagged (Cat No. RORC-114H, Creative Biomart); purchased Creative Biomart RORC-114H
T1 sequence (P51449 269-508 limits assumed): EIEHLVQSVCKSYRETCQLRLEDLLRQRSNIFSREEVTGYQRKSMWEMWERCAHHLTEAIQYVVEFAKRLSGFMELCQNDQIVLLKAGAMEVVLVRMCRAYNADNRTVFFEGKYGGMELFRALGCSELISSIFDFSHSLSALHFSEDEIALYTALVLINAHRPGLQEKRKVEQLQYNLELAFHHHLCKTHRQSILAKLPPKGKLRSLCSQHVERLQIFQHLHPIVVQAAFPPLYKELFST
Procedure, shortened: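 GST-tagged RORγ LBD (25 ng/reaction) was incubated in coregulator buffer D with 5 mM DTT and compound (top 3 μM, 7-fold steps, 7 doses), then with a mix containing 0.6 μM fluorescein-D22 peptide and 8 nM Tb anti-GST antibody. After 1 h at room temperature in the dark, 520/495 nm TR-FRET was read. IC50 came from log concentration versus percent inhibition.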

[1] = system: IL-17 production, human PBMC cells; assay: IL-17 production assay using human PBMC; type: cell-based; conditions: human PBMC stimulated by cytostim for 3 days, IL-17 ELISA of supernatant
Excerpt: Test Example 2. IL-17 Production Assay Using Human PBMC
• 1. Human PBMC cells (Cat No. 70025.1, Zenbio) • 2. Lymphocyte medium (Cat No. LYMPH-1, Zenbio) • 3. TexMACS (Cat No. 130-097-196, Miltenyi) • 4. Cytostim-human (Cat No. 1130-092-173, Miltenyi) • 5. Human IL-17 ELISA (Cat No. D1700, R&D systems) • 6. Tecan Infinite M1000 plate reader (Tecan)
Experimental Procedure for IL-17 Production Assay
Cryopreserved peripheral blood human mononuclear cells (PBMCs) were rapidly thawed in warmed Lymphocyte media, and centrifuged cell suspension at 1000 rpm for 10 minutes. The supernatant was removed, and the cell pellets were gently resuspended in TexMACS media.
Human PBMC cells in TexMACS media were plated at 1×10^5 each well in triplicate. The test compounds at various concentrations or vehicle control (<0.5% DMSO) were added into cell culture. The cells were stimulated by cytostim (10 μL/mL) for 3 days in a humidified, 5% CO2 incubator at 37° C.
After incubation, the cell culture supernatant was harvested, and then removed particulates by centrifugation. Human IL-17 in the supernatant was measured using human IL-17 ELISA kit according to the manufacturer's protocol. IC50 values were determined using GraphPad Prism by plotting the compounds concentration versus percent inhibition.

CC(=O)NCCC(c1ccc(S(=O)(=O)CC2CC2)cc1)c1nc2cc(-c3ccccc3OC(F)F)c(Cl)cc2[nH]1 (single isomer, unassigned) [166 or 167 made from Int-164A, (R or S)—N-(3-(6-chloro-5-(2-(difluoromethoxy)phenyl)-1H-benzo[d]imidazol-2-yl)-3-(4-((cyclopropylmethyl)sulfonyl)phenyl)propyl)acetamide]
IC50 (RORγ LBD-GST tagged): 0.01 µM | IC50 ([1]; Homo sapiens, PBMC, 72 h): 0.066 µM

NC(=O)CC(c1ccc(S(=O)(=O)CC2CC2)cc1)c1nc2cc(Cl)c(N3CCC(F)(F)CC3)c(Cl)c2[nH]1 (stereo not shown) [Example 154, 3-(4-((cyclopropylmethyl)sulfonyl)phenyl)-3-(5,7-dichloro-6-(4,4-difluoropiperidin-1-yl)-1H-benzo[d]imidazol-2-yl)propanamide]
IC50 (RORγ LBD-GST tagged): 0.049 µM | IC50 ([1]; Homo sapiens, PBMC, 72 h): 0.077 µM

O=S(=O)(CC1CC1)c1ccc(C(CCO)c2nc3cc(Cl)c(-c4ccccc4OC(F)F)cc3[nH]2)cc1 (stereo not shown) [Example 142, 3-(5-chloro-6-(2-(difluoromethoxy)phenyl)-1H-benzo[d]imidazol-2-yl)-3-(4-((cyclopropylmethyl)sulfonyl)phenyl)propan-1-ol]
IC50 (RORγ LBD-GST tagged): 0.013 µM | IC50 ([1]; Homo sapiens, PBMC, 72 h): 0.028 µM

CCS(=O)(=O)c1ccc(/C(=N\O)c2nc3c(Cl)c(-c4ccccc4OC(F)F)c(Cl)cc3[nH]2)cc1 [Example 38, (E,Z)-(4,6-dichloro-5-(2-(difluoromethoxy)phenyl)-1H-benzo[d]imidazol-2-yl)(4-(ethylsulfonyl)phenyl)methanone oxime]
IC50 (RORγ LBD-GST tagged): 0.147 µM | IC50 ([1]; Homo sapiens, PBMC, 72 h): 0.873 µM

CCS(=O)(=O)c1ccc(C(CO)c2nc3cc(-c4ccccc4OC(F)(F)F)c(Cl)cc3[nH]2)cc1 (stereo not shown) [Example 119, 2-(6-chloro-5-(2-(trifluoromethoxy)phenyl)-1H-benzo[d]imidazol-2-yl)-2-(4-(ethylsulfonyl)phenyl)ethanol]
IC50 (RORγ LBD-GST tagged): 0.034 µM | IC50 ([1]; Homo sapiens, PBMC, 72 h): 0.124 µM

O=S(=O)(CC1CC1)c1ccc(C(CCN2CCOCC2)c2nc3cc(-c4ccccc4OC(F)F)c(Cl)cc3[nH]2)cc1 (single isomer, unassigned) [164 or 165 made from Int-164A, (R or S)-4-(3-(6-chloro-5-(2-(difluoromethoxy)phenyl)-1H-benzo[d]imidazol-2-yl)-3-(4-((cyclopropylmethyl)sulfonyl)phenyl)propyl)morpholine]
IC50 (RORγ LBD-GST tagged): 1.25 µM | IC50 ([1]; Homo sapiens, PBMC, 72 h): 0.28 µM

CCS(=O)(=O)c1ccc(Cc2nc3c(Cl)c(-c4ccccc4OCC(F)(F)F)c(Cl)cc3[nH]2)cc1 [Example 31, 4,6-dichloro-2-(4-(ethylsulfonyl)benzyl)-5-(2-(2,2,2-trifluoroethoxy)phenyl)-1H-benzo[d]imidazole]
IC50 (RORγ LBD-GST tagged): 0.01 µM | IC50 ([1]; Homo sapiens, PBMC, 72 h): 0.011 µM

O=S(=O)(CC1CC1)c1ccc(C(CCN2CCOCC2)c2nc3cc(Cl)c(N4CCC(F)(F)CC4)c(Cl)c3[nH]2)cc1 (stereo not shown) [Example 170, 4-(3-(4-((cyclopropylmethyl)sulfonyl)phenyl)-3-(5,7-dichloro-6-(4,4-difluoropiperidin-1-yl)-1H-benzo[d]imidazol-2-yl)propyl)morpholine]
IC50 (RORγ LBD-GST tagged): 0.71 µM | IC50 ([1]; Homo sapiens, PBMC, 72 h): 0.43 µM

CCS(=O)(=O)c1ccc(C(CO)c2nc3c(Cl)c(-c4ccccc4OC(F)(F)F)c(Cl)cc3[nH]2)c(F)c1 (stereo not shown) [Example 77, 2-(4,6-dichloro-5-(2-(trifluoromethoxy)phenyl)-1H-benzo[d]imidazol-2-yl)-2-(4-(ethylsulfonyl)-2-fluorophenyl)ethanol]
IC50 (RORγ LBD-GST tagged): 0.021 µM | IC50 ([1]; Homo sapiens, PBMC, 72 h): 0.017 µM

CCS(=O)(=O)c1ccc(C(O)c2nc3c(Cl)c(-c4ccccc4C#N)c(Cl)cc3[nH]2)cc1 (stereo not shown) [Example 23, 2-(4,6-dichloro-2-((4-(ethylsulfonyl)phenyl)(hydroxy)methyl)-1H-benzo[d]imidazol-5-yl)benzonitrile]
IC50 (RORγ LBD-GST tagged): 0.318 µM | IC50 ([1]; Homo sapiens, PBMC, 72 h): 0.075 µM

CCS(=O)(=O)c1ccc(Cc2nc3c(Cl)c(-c4ccccc4OCOC)c(Cl)cc3[nH]2)cc1 [Example 13, 4,6-dichloro-2-(4-(ethylsulfonyl)benzyl)-5-(2-(methoxymethoxy)phenyl)-1H-benzo[d]imidazole]
IC50 (RORγ LBD-GST tagged): 0.675 µM | IC50 ([1]; Homo sapiens, PBMC, 72 h): 0.082 µM

CCOc1ccccc1-c1c(Cl)cc2nc(C(CO)c3ccc(S(=O)(=O)CC4CC4)cc3)[nH]c2c1Cl (stereo not shown) [Example 137, 2-(4-((cyclopropylmethyl)sulfonyl)phenyl)-2-(5,7-dichloro-6-(2-ethoxyphenyl)-1H-benzo[d]imidazol-2-yl)ethanol]
IC50 (RORγ LBD-GST tagged): 0.013 µM | IC50 ([1]; Homo sapiens, PBMC, 72 h): 0.004 µM

CCS(=O)(=O)c1ccc(C(N)c2nc3c(Cl)c(-c4ccccc4OC(F)F)c(Cl)cc3[nH]2)cc1 (stereo not shown) [Example 39, (4,6-dichloro-5-(2-(difluoromethoxy)phenyl)-1H-benzo[d]imidazol-2-yl)(4-(ethylsulfonyl)phenyl)methanamine]
IC50 (RORγ LBD-GST tagged): 0.007 µM | IC50 ([1]; Homo sapiens, PBMC, 72 h): 0.038 µM

O=S(=O)(CC1CC1)c1ccc(Cc2nc3c(Cl)c(-c4ccccc4OC(F)(F)F)c(Cl)cc3[nH]2)c(F)c1 [Example 80, 4,6-dichloro-2-(4-((cyclopropylmethyl)sulfonyl)-2-fluorobenzyl)-5-(2-(trifluoromethoxy)phenyl)-1H-benzo[d]imidazole]
IC50 (RORγ LBD-GST tagged): 0.031 µM | IC50 ([1]; Homo sapiens, PBMC, 72 h): 0.013 µM

CC(C)Oc1ccccc1-c1cc2nc(C(CCO)c3ccc(S(=O)(=O)CC4CC4)cc3)[nH]c2cc1Cl (single isomer, unassigned) [the longer retention time of 150 and 151, 3-(6-chloro-5-(2-isopropoxyphenyl)-1H-benzo[d]imidazol-2-yl)-3-(4-((cyclopropylmethyl)sulfonyl)phenyl)propan-1-ol]
IC50 (RORγ LBD-GST tagged): 0.026 µM | IC50 [1]: 0.031 µM

CCS(=O)(=O)c1ccc(C(CO)c2nc3c(Cl)c(-c4ccccc4OC(F)(F)F)c(Cl)cc3[nH]2)cc1 (stereo not shown) [Example 4, 2-(4,6-dichloro-5-(2-(trifluoromethoxy)phenyl)-1H-benzo[d]imidazol-2-yl)-2-(4-(ethylsulfonyl)phenyl)ethanol]
IC50 (RORγ LBD-GST tagged): 0.16 µM | IC50 ([1]; Homo sapiens, PBMC, 72 h): 0.053 µM

O=S(=O)(CC1CC1)c1ccc(Cc2nc3c(Cl)c(-c4ccccc4OC(F)(F)F)c(Cl)cc3[nH]2)cc1 [Example 66, 4,6-dichloro-2-(4-((cyclopropylmethyl)sulfonyl)benzyl)-5-(2-(trifluoromethoxy)phenyl)-1H-benzo[d]imidazole]
IC50 (RORγ LBD-GST tagged): 0.002 µM | IC50 ([1]; Homo sapiens, PBMC, 72 h): 0.01 µM

O=S(=O)(CC1CC1)c1ccc(C(CCO)c2nc3cc(Cl)c(N4CCC(F)(F)CC4)c(Cl)c3[nH]2)cc1 (stereo not shown) [Example 157, 3-(4-((cyclopropylmethyl)sulfonyl)phenyl)-3-(5,7-dichloro-6-(4,4-difluoropiperidin-1-yl)-1H-benzo[d]imidazol-2-yl)propan-1-ol]
IC50 (RORγ LBD-GST tagged): 0.007 µM | IC50 ([1]; Homo sapiens, PBMC, 72 h): 0.022 µM

CCS(=O)(=O)c1ccc(C(O)c2nc3c(Cl)c(-c4ccccc4OC)c(Cl)cc3[nH]2)cc1 (stereo not shown) [Example 7, (4,6-dichloro-5-(2-methoxyphenyl)-1H-benzo[d]imidazol-2-yl)(4-(ethylsulfonyl)phenyl)methanol]
IC50 (RORγ LBD-GST tagged): 0.086 µM | IC50 ([1]; Homo sapiens, PBMC, 72 h): 0.223 µM

CCOc1ccccc1-c1c(Cl)cc2nc(Cc3ccc(S(=O)(=O)CC4CC4)cc3)[nH]c2c1Cl [Example 136, 5,7-dichloro-2-(4-((cyclopropylmethyl)sulfonyl)benzyl)-6-(2-ethoxyphenyl)-1H-benzo[d]imidazole]
IC50 (RORγ LBD-GST tagged): 0.005 µM | IC50 ([1]; Homo sapiens, PBMC, 72 h): 0.014 µM

O=S(=O)(CC1CC1)c1ccc(C(CO)c2nc3c(Cl)c(-c4ccccc4C(F)(F)F)c(Cl)cc3[nH]2)cc1 (stereo not shown) [Example 70, 2-(4-((cyclopropylmethyl)sulfonyl)phenyl)-2-(4,6-dichloro-5-(2-(trifluoromethyl)phenyl)-1H-benzo[d]imidazol-2-yl)ethanol]
IC50 (RORγ LBD-GST tagged): 0.014 µM | IC50 ([1]; Homo sapiens, PBMC, 72 h): 0.006 µM

CCS(=O)(=O)c1ccc(Cc2nc3c(Cl)c(-c4ccccc4C(F)(F)F)c(Cl)cc3[nH]2)cc1 [Example 3, 4,6-dichloro-2-(4-(ethylsulfonyl)benzyl)-5-(2-(trifluoromethyl)phenyl)-1H-benzo[d]imidazole]
IC50 (RORγ LBD-GST tagged): 0.373 µM | IC50 ([1]; Homo sapiens, PBMC, 72 h): 0.052 µM

O=S(=O)(NC1CC1)c1ccc(C(CO)c2nc3c(Cl)c(-c4ccccc4OC(F)(F)F)c(Cl)cc3[nH]2)cc1 (stereo not shown) [Example 123, N-cyclopropyl-4-(1-(4,6-dichloro-5-(2-(trifluoromethoxy)phenyl)-1H-benzo[d]imidazol-2-yl)-2-hydroxyethyl)benzenesulfonamide]
IC50 (RORγ LBD-GST tagged): 0.03 µM | IC50 ([1]; Homo sapiens, PBMC, 72 h): 0.058 µM
